Tests used:
[1] = target: T1, Lysine-specific demethylase 4C (Homo sapiens, UniProt Q9H3R0)
T1 sequence (Q9H3R0 whole entry): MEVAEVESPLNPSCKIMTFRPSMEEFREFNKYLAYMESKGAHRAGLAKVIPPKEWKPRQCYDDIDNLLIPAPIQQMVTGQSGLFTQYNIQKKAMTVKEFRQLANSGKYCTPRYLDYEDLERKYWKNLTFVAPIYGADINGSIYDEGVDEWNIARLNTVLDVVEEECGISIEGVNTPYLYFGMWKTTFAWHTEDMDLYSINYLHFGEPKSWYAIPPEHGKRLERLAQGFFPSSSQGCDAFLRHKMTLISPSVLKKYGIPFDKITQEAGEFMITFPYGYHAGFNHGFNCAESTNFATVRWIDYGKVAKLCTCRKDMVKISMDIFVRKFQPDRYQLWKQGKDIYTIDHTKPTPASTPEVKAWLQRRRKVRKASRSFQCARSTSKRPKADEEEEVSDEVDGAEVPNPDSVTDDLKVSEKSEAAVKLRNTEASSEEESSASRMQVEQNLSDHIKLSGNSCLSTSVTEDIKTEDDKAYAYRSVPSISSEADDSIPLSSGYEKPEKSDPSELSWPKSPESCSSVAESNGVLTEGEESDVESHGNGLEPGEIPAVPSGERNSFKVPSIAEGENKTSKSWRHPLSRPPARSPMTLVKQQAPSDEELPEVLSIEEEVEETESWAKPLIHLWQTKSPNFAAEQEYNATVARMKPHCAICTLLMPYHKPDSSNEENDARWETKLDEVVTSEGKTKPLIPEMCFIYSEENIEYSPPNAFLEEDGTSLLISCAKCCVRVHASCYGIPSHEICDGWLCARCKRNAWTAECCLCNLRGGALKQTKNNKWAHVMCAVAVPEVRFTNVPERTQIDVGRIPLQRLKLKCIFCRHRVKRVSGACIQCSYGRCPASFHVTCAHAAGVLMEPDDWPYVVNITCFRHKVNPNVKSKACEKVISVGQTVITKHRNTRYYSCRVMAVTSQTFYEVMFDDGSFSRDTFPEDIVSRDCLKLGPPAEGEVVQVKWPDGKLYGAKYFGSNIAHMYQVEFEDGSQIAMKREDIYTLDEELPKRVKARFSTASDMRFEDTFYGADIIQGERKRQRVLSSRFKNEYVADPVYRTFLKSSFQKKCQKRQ
Description: Inhibition of recombinant JMJD2C (unknown origin) incubated for 15 mins prior to substrate addition by AlphaScreen method

[2] = target: T2, Lysine-specific demethylase 2A (Homo sapiens, UniProt Q9Y2K7)
T2 sequence (Q9Y2K7 whole entry): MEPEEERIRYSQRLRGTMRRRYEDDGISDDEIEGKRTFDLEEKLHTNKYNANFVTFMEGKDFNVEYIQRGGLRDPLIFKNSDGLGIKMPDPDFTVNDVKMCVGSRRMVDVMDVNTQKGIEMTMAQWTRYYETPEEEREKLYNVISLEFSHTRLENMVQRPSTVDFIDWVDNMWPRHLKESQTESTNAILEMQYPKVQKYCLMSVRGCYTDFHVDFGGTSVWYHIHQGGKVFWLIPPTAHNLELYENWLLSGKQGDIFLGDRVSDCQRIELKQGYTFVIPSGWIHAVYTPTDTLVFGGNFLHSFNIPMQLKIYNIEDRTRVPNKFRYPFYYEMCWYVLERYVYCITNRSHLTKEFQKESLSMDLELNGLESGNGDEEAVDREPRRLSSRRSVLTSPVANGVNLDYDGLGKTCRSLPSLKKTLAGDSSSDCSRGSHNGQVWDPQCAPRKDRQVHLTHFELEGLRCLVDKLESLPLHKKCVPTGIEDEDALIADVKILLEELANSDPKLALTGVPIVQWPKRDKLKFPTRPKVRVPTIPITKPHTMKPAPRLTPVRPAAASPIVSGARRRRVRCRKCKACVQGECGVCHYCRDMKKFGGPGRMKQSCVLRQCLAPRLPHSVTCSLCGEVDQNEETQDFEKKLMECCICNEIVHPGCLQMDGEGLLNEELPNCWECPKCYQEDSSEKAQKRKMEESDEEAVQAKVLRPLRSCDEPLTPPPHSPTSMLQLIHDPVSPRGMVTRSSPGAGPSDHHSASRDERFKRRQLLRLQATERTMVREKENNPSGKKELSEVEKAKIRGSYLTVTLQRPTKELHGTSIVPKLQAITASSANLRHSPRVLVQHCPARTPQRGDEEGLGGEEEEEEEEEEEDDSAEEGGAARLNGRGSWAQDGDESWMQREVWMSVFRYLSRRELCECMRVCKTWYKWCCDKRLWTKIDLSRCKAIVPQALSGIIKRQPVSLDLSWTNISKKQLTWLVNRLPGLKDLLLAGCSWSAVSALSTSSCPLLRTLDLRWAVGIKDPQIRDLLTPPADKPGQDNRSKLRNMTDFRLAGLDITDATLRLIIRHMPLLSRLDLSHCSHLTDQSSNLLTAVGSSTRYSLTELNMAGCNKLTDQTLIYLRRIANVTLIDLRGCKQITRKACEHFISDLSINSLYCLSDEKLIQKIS
Description: Inhibition of recombinant FBXL11 (unknown origin) incubated for 15 mins prior to substrate addition by AlphaScreen method

[3] = target: Lysine-specific demethylase 6B (Homo sapiens, UniProt O15054)
Description: Inhibition of recombinant JMJD3 (unknown origin) incubated for 15 mins prior to substrate addition by AlphaScreen method

[4] = target: Lysine-specific demethylase 5C (Homo sapiens, UniProt P41229)
Description: Inhibition of recombinant JARID1C (unknown origin) incubated for 15 mins prior to substrate addition by AlphaScreen method

[5] = target: T3, Lysine-specific demethylase 4E (Homo sapiens, UniProt B2RXH2)
T3 sequence (B2RXH2 whole entry): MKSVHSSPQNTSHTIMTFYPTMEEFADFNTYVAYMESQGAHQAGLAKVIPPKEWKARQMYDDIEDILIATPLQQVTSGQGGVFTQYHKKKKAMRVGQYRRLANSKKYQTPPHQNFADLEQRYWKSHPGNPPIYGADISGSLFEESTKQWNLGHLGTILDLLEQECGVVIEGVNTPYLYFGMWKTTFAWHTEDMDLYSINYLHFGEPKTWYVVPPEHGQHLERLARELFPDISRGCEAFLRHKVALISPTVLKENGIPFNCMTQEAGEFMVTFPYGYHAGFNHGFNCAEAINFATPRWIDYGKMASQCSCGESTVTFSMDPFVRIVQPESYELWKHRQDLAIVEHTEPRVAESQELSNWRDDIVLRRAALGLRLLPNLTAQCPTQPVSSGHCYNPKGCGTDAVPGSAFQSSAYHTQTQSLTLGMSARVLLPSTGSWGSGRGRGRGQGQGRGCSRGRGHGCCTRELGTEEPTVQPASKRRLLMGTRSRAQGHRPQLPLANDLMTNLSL
Description: Inhibition of recombinant JMJD2E (unknown origin) incubated for 15 mins prior to substrate addition by AlphaScreen method

Sequence of Lysine-specific demethylase 5C (P41229 whole entry): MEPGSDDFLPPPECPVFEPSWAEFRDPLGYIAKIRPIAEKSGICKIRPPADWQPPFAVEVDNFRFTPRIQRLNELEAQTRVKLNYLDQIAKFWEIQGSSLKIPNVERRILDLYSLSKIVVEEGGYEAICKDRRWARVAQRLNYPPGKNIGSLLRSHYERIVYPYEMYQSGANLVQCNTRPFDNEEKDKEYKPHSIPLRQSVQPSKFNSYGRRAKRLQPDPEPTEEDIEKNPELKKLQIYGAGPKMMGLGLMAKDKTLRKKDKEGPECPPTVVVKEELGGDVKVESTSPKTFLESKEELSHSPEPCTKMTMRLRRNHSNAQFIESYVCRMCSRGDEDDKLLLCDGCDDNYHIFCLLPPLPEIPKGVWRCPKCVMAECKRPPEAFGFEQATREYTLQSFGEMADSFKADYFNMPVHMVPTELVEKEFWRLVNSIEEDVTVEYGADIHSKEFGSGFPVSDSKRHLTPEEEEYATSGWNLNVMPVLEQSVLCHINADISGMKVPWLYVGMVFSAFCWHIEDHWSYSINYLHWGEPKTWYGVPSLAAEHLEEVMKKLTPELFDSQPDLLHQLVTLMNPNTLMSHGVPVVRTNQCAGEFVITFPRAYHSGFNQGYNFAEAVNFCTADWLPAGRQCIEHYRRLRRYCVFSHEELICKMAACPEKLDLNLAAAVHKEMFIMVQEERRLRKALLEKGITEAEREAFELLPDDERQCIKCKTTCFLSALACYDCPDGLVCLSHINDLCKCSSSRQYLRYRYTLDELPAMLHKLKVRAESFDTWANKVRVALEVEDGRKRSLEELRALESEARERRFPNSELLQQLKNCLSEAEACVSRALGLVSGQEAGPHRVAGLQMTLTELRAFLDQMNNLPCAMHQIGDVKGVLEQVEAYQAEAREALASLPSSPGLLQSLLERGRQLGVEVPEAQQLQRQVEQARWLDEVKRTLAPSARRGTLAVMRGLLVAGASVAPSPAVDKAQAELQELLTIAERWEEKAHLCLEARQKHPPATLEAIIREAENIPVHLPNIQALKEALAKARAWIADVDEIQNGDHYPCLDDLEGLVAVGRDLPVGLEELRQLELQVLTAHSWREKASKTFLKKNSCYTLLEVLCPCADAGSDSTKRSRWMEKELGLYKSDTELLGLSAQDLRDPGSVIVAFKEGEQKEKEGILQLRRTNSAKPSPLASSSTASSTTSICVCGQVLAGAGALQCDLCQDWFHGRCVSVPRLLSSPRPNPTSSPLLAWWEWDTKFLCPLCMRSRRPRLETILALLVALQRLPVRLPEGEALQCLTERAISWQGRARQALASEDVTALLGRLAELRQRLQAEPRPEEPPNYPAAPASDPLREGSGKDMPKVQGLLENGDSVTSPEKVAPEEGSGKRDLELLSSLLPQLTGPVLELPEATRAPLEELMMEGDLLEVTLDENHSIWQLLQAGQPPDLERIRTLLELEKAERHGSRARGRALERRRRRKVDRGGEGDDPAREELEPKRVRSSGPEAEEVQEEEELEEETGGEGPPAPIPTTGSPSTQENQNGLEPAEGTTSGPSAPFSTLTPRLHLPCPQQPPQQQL
Sequence of Lysine-specific demethylase 6B (O15054 whole entry): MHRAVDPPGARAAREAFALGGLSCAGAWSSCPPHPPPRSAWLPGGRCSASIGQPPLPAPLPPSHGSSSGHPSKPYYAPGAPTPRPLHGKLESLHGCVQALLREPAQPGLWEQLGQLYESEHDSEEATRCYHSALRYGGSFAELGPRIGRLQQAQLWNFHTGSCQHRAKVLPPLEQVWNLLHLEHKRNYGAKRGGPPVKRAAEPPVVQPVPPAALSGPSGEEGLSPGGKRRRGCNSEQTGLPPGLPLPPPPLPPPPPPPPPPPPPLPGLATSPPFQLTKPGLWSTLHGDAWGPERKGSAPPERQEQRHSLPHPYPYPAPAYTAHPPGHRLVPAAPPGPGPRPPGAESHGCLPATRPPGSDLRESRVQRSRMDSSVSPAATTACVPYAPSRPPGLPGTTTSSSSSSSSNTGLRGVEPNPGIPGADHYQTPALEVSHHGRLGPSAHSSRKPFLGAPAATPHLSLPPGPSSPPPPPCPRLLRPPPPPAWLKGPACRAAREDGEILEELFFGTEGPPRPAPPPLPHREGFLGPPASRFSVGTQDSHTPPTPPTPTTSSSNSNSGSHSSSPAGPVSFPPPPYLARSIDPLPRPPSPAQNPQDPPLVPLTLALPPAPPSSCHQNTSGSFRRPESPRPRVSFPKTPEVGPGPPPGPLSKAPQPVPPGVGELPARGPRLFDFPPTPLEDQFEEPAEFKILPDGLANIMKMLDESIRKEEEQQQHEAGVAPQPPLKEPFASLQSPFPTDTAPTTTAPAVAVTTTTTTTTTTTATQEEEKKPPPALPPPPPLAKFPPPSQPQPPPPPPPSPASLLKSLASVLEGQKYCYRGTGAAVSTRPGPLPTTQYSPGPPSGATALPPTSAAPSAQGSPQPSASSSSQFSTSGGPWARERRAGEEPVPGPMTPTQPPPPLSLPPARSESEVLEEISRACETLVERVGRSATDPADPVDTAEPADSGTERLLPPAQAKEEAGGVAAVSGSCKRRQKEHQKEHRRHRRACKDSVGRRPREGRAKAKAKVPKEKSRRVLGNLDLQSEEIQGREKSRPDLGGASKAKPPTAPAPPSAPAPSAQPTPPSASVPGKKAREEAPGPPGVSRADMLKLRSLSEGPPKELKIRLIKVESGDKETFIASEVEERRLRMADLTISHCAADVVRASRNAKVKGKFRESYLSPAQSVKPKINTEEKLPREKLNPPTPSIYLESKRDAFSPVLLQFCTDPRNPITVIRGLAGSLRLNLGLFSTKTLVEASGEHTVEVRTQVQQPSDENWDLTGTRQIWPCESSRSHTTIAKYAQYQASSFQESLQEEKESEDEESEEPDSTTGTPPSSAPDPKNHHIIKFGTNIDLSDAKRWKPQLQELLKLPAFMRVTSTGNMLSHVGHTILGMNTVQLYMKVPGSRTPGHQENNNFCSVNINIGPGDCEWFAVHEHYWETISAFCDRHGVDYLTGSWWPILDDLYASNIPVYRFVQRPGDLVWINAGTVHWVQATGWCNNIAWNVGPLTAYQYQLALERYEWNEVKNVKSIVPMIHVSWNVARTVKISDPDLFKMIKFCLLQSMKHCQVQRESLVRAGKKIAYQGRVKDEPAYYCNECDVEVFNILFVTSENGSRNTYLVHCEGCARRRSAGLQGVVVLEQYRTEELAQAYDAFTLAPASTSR

Row | IC50 [1] [µM] | IC50 [2] [µM] | IC50 [3] [µM] | IC50 [4] [µM] | IC50 [5] [µM] | SMILES
1 | 3.1 | 8.2 | 14 | 21 | 3.5 | N[C@H]1C[C@@H]1c1ccc(NC(=O)CCCCNC(=O)c2ccc(O)c3ncccc23)cc1 (relative stereo)
2 | 4.5 | 12 | 18 | 35 | 5.5 | N[C@H]1C[C@@H]1c1ccc(NC(=O)CCCNC(=O)c2ccc(O)c3ncccc23)cc1 (relative stereo)

Continued, molecule first:

Row | SMILES | IC50 [1] [µM] | IC50 [2] [µM] | IC50 [3] [µM] | IC50 [4] [µM] | IC50 [5] [µM]
3 | Cl.N[C@@H]1C[C@H]1c1ccc(NC(=O)c2ccc(O)c3ncccc23)cc1 (relative stereo) | 1.2 | 7.8 | 27 | 26 | 3.9
4 | COC(=O)c1ccnc(-c2cc(C(=O)Nc3ccc([C@@H]4C[C@H]4N)cc3)ccn2)c1.Cl (relative stereo) | 2.7 | 12.2 | 76 | 8.5 | 16
5 | N[C@@H]1C[C@H]1c1ccc(NC(=O)c2ccnc(-c3cc(C(=O)O)ccn3)c2)cc1 (relative stereo) | 0.07 | 0.22 | 2.7 | 0.19 | 0.42
6 | Cl.N[C@H]1C[C@@H]1c1ccc(NC(=O)CCCCCNC(=O)c2ccc(O)c3ncccc23)cc1 (relative stereo) | 2.5 | 12 | 16 | 37 | 5.1
7 | COC(=O)c1ccnc(-c2cc(C(=O)O)ccn2)c1 | 3.5 | 4.8 | 11.2 | 0.03 | 5
